Measured values: PubChem BioAssay AID624076 (Broad Institute, 2012)
Active and inactive are the calls of the source. How the calls were made is not given here.

Test: PubChem AID 624076
Details: Carna kinase panel, IMAP FP / mobility shift, at 10 µM, active compounds read high

COc1ccccc1[C@@H]1C2=C(CC(C)(C)CC2=O)Nc2n[nH]c(C(F)(F)F)c21
inhibition (ABL(E255K)): -4.01% (inactive)
inhibition (ABL(T315I)): 0.608% (inactive)
inhibition (AKT2): 0.755% (inactive)
inhibition (AKT3): 0.416% (inactive)
inhibition (ALK(L1196M)): 2.33% (inactive)
inhibition (ALK(R1275Q)): 2.67% (inactive)
inhibition (ARG): -1.1% (inactive)
inhibition (AXL): 4.36% (inactive)
inhibition (AurB): 6.59% (inactive)
inhibition (AurC): 6.9% (inactive)
inhibition (BRAF, cascade assay): 10.8% (inactive)
inhibition (BRK): -0.572% (inactive)
inhibition (BRSK1): 4.37% (inactive)
inhibition (BTK): -2.3% (inactive)
inhibition (CDK9/CycT1): 20.5% (inactive)
inhibition (CHK2): 6.76% (inactive)
inhibition (CK1e): 0.145% (inactive)
inhibition (CK1g1): 0.48% (inactive)
inhibition (CK1g2): 2.84% (inactive)
inhibition (CK2a2/b): -4.08% (inactive)
inhibition (CK1d): -0.463% (inactive)
inhibition (CLK1): 15.1% (inactive)
inhibition (CLK2): 22.8% (inactive)
inhibition (CLK3): 5.11% (inactive)
inhibition (CRIK): 0.502% (inactive)
inhibition (CaMK2b): 2.08% (inactive)
inhibition (CaMK4): 2.19% (inactive)
inhibition (CaMK1d): 0.058% (inactive)
inhibition (DAPK1): 1.44% (inactive)
inhibition (DCAMKL2): 3.11% (inactive)
inhibition (DLK, cascade assay): -3.03% (inactive)
inhibition (DYRK1A): 13.9% (inactive)
inhibition (DYRK1B): 52.5%
inhibition (DYRK2): -4.58% (inactive)
inhibition (EGFR(L861Q)): -0.865% (inactive)
inhibition (EML4-ALK): 1.03% (inactive)
inhibition (EPHA3): -0.86% (inactive)
inhibition (EPHA5): -0.402% (inactive)
inhibition (EPHA8): -3.88% (inactive)
inhibition (EPHB1): 3.24% (inactive)
inhibition (EPHB4): 2.47% (inactive)
inhibition (FGFR1): 4.17% (inactive)
inhibition (FGFR3(K650E)): 2.8% (inactive)
inhibition (FGFR3(K650M)): 1.1e-14% (inactive)
inhibition (FGFR4(N535K)): 0.356% (inactive)
inhibition (FGFR4(V550L)): 4.09% (inactive)
inhibition (FGFR4): 5.54% (inactive)
inhibition (FLT4): 9% (inactive)
inhibition (FMS): -0.377% (inactive)
inhibition (GSK3a): 101%
inhibition (HER4): -0.972% (inactive)
inhibition (HIPK1): 8.84% (inactive)
inhibition (HIPK3): 3.54% (inactive)
inhibition (HIPK4): 7.81% (inactive)
inhibition (Haspin): -1.27% (inactive)
inhibition (IGF1R): -2.57% (inactive)
inhibition (IKKb): -2.12% (inactive)
inhibition (IRAK4): -2.34% (inactive)
inhibition (IRR): -1.56% (inactive)
inhibition (JAK2): -0.539% (inactive)
inhibition (JAK3): 8.04% (inactive)
inhibition (JNK1): -1.99% (inactive)
inhibition (JNK2): 3.84% (inactive)
inhibition (JNK3): 2.16% (inactive)
inhibition (KIT(T670I)): 8.36% (inactive)
inhibition (KIT(V560G)): 3.59% (inactive)
inhibition (KIT): 6.69% (inactive)
inhibition (LATS2): 3.09% (inactive)
inhibition (LOK): 8.66% (inactive)
inhibition (LTK): 11.1% (inactive)
inhibition (LYNa): 15.1% (inactive)
inhibition (MAP2K3, cascade assay): 6.17% (inactive)
inhibition (MAP2K4, cascade assay): 0.115% (inactive)
inhibition (MAP3K4, cascade assay): 7.41% (inactive)
inhibition (MAP3K5, cascade assay): 14.4% (inactive)
inhibition (MAP4K2): 7.36% (inactive)
inhibition (MARK2): 39.1% (inactive)
inhibition (MARK4): 48.6% (inactive)
inhibition (MELK): 7.87% (inactive)
inhibition (MER): 8.36% (inactive)
inhibition (MGC42105): 0.183% (inactive)
inhibition (MINK): -2.54% (inactive)
inhibition (MLK1, cascade assay): 17.6% (inactive)
inhibition (MLK2, cascade assay): 4.73% (inactive)
inhibition (MLK3, cascade assay): 1.88% (inactive)
inhibition (MSK1): 3.83% (inactive)
inhibition (MST2): -3.85% (inactive)
inhibition (MST4): -1.67% (inactive)
inhibition (NDR1): -0.193% (inactive)
inhibition (NEK1): 0.375% (inactive)
inhibition (NEK2): 0.761% (inactive)
inhibition (NEK6): 3.82% (inactive)
inhibition (NEK7): -4.5% (inactive)
inhibition (PAK3): 33.4% (inactive)
inhibition (PAK4): 17.6% (inactive)
inhibition (PAK5): 14.9% (inactive)
inhibition (PASK): 3.87% (inactive)
inhibition (PBK): 0.885% (inactive)
inhibition (PDGFRa(V561D)): 2.12% (inactive)
inhibition (PEK): -3.83% (inactive)
inhibition (PGK): 0.119% (inactive)
inhibition (PHKG1): 5.52% (inactive)
inhibition (PIK3CA/PIK3R1): -2.01% (inactive)
inhibition (PIM2): 0.406% (inactive)
inhibition (PIM3): 8.57% (inactive)
inhibition (PKACg): 1.21% (inactive)
inhibition (PKCa): 4.41% (inactive)
inhibition (PKCb2): 9.38% (inactive)
inhibition (PKCd): 8.65% (inactive)
inhibition (PKCg): 5.54% (inactive)
inhibition (PKD1): -0.973% (inactive)
inhibition (PKD2): 0.969% (inactive)
inhibition (PKD3): 5.41% (inactive)
inhibition (PKN1): 23.4% (inactive)
inhibition (PLK1): 0.912% (inactive)
inhibition (PRKX): -1.49% (inactive)
inhibition (RET(S891A)): 16.1% (inactive)
inhibition (RET(Y791F)): 2.31% (inactive)
inhibition (ROCK1): 6.72% (inactive)
inhibition (ROCK2): 2.67% (inactive)
inhibition (ROS): 82.7%
inhibition (RSK1): 8.92% (inactive)
inhibition (RSK2): 10.7% (inactive)
inhibition (RSK4): 10.3% (inactive)
inhibition (SGK3): 0.498% (inactive)
inhibition (SIK): 3.03% (inactive)
inhibition (SLK): 10.4% (inactive)
inhibition (SRC): 4% (inactive)
inhibition (SRM): -2.09% (inactive)
inhibition (SRPK1): 13.7% (inactive)
inhibition (SYK): -0.473% (inactive)
inhibition (TAK1-TAB1, cascade assay): 3.32% (inactive)
inhibition (TIE2): 4.15% (inactive)
inhibition (TNK1): 3.87% (inactive)
inhibition (TRKA): 54.8%
inhibition (TSSK3): 0% (inactive)
inhibition (TYK2): -1.6% (inactive)
inhibition (WNK2): -0.427% (inactive)
inhibition (p38a): 1.28% (inactive)
inhibition (p38d): 15.7% (inactive)
